Experimental findings from patent US20090011935A1, “Method of Inducing Tolerance of Plants Against Bacterioses” (BASF SE, priority 2006, published 2009) are described below.

In this assay the test system is bacteria. In words: Effect of metiram alone on bacteria.

metiram: the effect on bacteria result was “very close to zero”.
